Measurements taken from patent publication US9682980B2, “Positive allosteric modulators of mGluR2” (BRISTOL-MYERS SQUIBB COMPANY, priority 2012, dated 2017).

How the values were obtained:
[1] = test system: rats treated with phencyclidine (PCP); details: cited from earlier work
schizophrenia = details: cited from earlier work
GAD patients = details: cited from earlier work
human mGluR2 = human mGluR2 (Homo sapiens (Human), UniProt Q14416); test: MGluR2 cAMP assay; type: cell-based; details: HEK293 cells clonally expressing human mGluR2, 1 μM forskolin, 1 μM LY-341495
Procedure, shortened: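 HEK293 cells expressing human mGluR2, glutamate-starved overnight, stimulated 30 min in HBSS pH 7.0 with 1 mM IBMX, 1 μM forskolin and 1 μM LY-341495. cAMP measured by HTRF (665/618 nm ratio) against a cAMP standard curve; EC50 from 4-parameter logistic fit of % inhibition.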

Sequence of human mGluR2 (Q14416 19-872): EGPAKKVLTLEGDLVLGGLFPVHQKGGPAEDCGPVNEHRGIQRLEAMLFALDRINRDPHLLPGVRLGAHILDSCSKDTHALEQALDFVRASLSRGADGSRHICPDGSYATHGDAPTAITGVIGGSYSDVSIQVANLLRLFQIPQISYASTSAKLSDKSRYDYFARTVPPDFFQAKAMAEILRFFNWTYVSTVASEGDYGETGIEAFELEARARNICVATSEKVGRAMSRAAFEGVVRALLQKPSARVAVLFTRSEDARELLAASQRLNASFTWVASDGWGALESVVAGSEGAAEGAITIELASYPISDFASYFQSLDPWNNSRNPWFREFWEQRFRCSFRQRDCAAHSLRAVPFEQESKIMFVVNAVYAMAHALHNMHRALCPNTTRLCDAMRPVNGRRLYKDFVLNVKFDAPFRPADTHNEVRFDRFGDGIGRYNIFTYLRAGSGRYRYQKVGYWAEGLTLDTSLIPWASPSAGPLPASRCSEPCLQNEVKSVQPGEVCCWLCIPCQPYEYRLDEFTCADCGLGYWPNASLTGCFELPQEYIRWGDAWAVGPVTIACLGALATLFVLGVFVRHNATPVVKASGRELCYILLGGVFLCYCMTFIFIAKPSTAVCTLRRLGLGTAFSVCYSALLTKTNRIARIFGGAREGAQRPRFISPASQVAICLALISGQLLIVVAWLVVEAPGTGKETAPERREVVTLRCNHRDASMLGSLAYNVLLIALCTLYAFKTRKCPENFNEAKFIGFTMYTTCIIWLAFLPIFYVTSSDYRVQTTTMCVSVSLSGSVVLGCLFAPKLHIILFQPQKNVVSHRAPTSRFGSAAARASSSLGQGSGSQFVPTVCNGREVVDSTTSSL

EC50 (human mGluR2) | Compound | other results
 | N[C@@]1(C(=O)O)CC[C@H]2[C@H](C(=O)O)[C@H]21 [LY-354740] | brain glutamate levels [1]: lowered brain glutamate levels; behavioral effects of PCP ([1]; hyper-locomotion and working memory deficits): reversed the behavioral effects of PCP
 | CSCC[C@H](N)C(=O)N[C@@]1(C(=O)O)CS(=O)(=O)[C@H]2[C@H](C(=O)O)[C@H]21 [LY-2140023] | positive and negative symptoms in schizophrenia (schizophrenia): relief of positive and negative symptoms
 | C[C@H](N)C(=O)N[C@@]1(C(=O)O)CC[C@H]2[C@H](C(=O)O)[C@H]21 [LY-544344] | therapeutic effects for anxiety (GAD patients): therapeutic effects
18 nM | N#Cc1ccccc1C1CCN(c2cnn3c(CC(F)(F)F)nnc3c2Cl)CC1 [Example 73, 2-(1-(8-chloro-3-(2,2,2-trifluoroethyl)-[1,2,4]triazolo[4,3-b]pyridazin-7-yl)piperidin-4-yl)benzonitrile] | 
62 nM | FC(F)(F)Cc1nnc2c(Cl)c(N3CCC(c4ccccc4)CC3)cnn12 [Example 56, 8-Chloro-7-(4-phenylpiperidin-1-yl)-3-(2,2,2-trifluoroethyl)-[1,2,4]triazolo[4,3-b]pyridazine] | 
4 nM | N#Cc1ccccc1C1CCN(c2cnn3c(CC4CC4)nnc3c2C(F)(F)F)CC1 [Example 77, 2-(1-(3-(Cyclopropylmethyl)-8-(trifluoromethyl)-[1,2,4]triazolo[4,3-b]pyridazin-7-yl)piperidin-4-yl)benzonitrile] | 
144 nM | Clc1cc(Cl)cc(C2CCN(c3cnn4c(CC5CC5)nnc4c3Cl)CC2)c1 [Example 47, 8-Chloro-3-(cyclopropylmethyl)-7-(4-(3,5-dichlorophenyl)piperidin-1-yl)-[1,2,4]triazolo[4,3-b]pyridazine] | 
2 nM | Fc1ccc(F)c(C2CCN(c3cnn4c(CC5CC5)nnc4c3Cl)CC2)c1OC(F)F [Example 50, 8-Chloro-3-(cyclopropylmethyl)-7-(4-(2-(difluoromethoxy)-3,6-difluorophenyl)piperidin-1-yl)-[1,2,4]triazolo[4,3-b]pyridazine] | 
121 nM | Clc1c(N2CCC(c3ccccc3)CC2)cnn2c(CCC3CC3)nnc12 [Example 59, 8-Chloro-3-(2-cyclopropylethyl)-7-(4-phenylpiperidin-1-yl)-[1,2,4]triazolo[4,3-b]pyridazine] | 
0.2 nM | COc1c(F)ccc(F)c1C1CCN(c2cnn3c(CC4CC4)nnc3c2C(F)(F)F)CC1 [Example 80, 3-(Cyclopropylmethyl)-7-(4-(3,6-difluoro-2-methoxyphenyl)piperidin-1-yl)-8-(trifluoromethyl)-[1,2,4]triazolo[4,3-b]pyridazine] | 
3 nM | COc1cccc(F)c1C1CCN(c2cnn3c(CC4CC4)nnc3c2Cl)CC1 [Example 22, 8-Chloro-3-(cyclopropylmethyl)-7-(4-(2-fluoro-6-methoxyphenyl)piperidin-1-yl)-[1,2,4]triazolo[4,3-b]pyridazine] | 
34 nM | FC(F)(F)c1cccnc1C1CCN(c2cnn3c(CC4CC4)nnc3c2Cl)CC1 [Example 76, 8-Chloro-3-(cyclopropylmethyl)-7-(4-(3-(trifluoromethyl)pyridin-2-yl)piperidin-1-yl)-[1,2,4]triazolo[4,3-b]pyridazine] | 
42 nM | COc1cccnc1C1CCN(c2cnn3c(CC(F)(F)F)nnc3c2Cl)CC1 [Example 83, 8-Chloro-7-(4-(3-methoxypyridin-2-yl)piperidin-1-yl)-3-(2,2,2-trifluoroethyl)-[1,2,4]triazolo[4,3-b]pyridazine] | 
3 nM | COc1cccc(F)c1C1CCN(c2cnn3c(CC4CC4)nnc3c2C(F)(F)F)CC1 [Example 70, 3-(Cyclopropylmethyl)-7-(4-(2-fluoro-6-methoxyphenyl)piperidin-1-yl)-8-(trifluoromethyl)-[1,2,4]triazolo[4,3-b]pyridazine] | 
217 nM | Clc1c(N2CCC(c3ccccc3)CC2)cnn2c(Cc3ccccc3)nnc12 [Example 57, 3-Benzyl-8-chloro-7-(4-phenylpiperidin-1-yl)-[1,2,4]triazolo[4,3-b]pyridazine] | 
2 nM | COc1cccc(F)c1C1CCN(c2cnn3c(CC(F)(F)F)nnc3c2Cl)CC1 [Example 26, 8-Chloro-7-(4-(2-fluoro-6-methoxyphenyl)piperidin-1-yl)-3-(2,2,2-trifluoroethyl)-[1,2,4]triazolo[4,3-b]pyridazine] | 
